Each structure is given as a SMILES string. Where “and” joins values, the source holds several entries; their conditions need not be identical. Equal entries are not always repeated.

From paper PMC7044277 (Nature Communications, 2020) come the findings set out here.

Assay type in all cases: cell-based
Common to all, as to set-up: GPCRome screening signal at PTGIR / GPCRome screening signal at PTH1R / GPCRome screening signal at PTH2R / GPCRome screening signal at QRFP / GPCRome screening signal at RXFP2 / GPCRome screening signal at RXFP3 / GPCRome screening signal at RXFP4 / GPCRome screening signal at S1PR2 / GPCRome screening signal at S1PR3 / GPCRome screening signal at S1PR4 / GPCRome screening signal at S1PR5 / GPCRome screening signal at SCTR / GPCRome screening signal at SSTR2 / GPCRome screening signal at SSSTR / GPCRome screening signal at SSTR4 / GPCRome screening signal at SSTR5 / GPCRome screening signal at SUCNR1 / GPCRome screening signal at TA1 / GPCRome screening signal at TAAR2 / GPCRome screening signal at TAAR5 / GPCRome screening signal at TAAR6 / GPCRome screening signal at TAAR8 / GPCRome screening signal at TACR1 / GPCRome screening signal at TACR2 / GPCRome screening signal at TACR3 / GPCRome screening signal at TBXA2R / GPCRome screening signal at TSHR / GPCRome screening signal at UTS2R / GPCRome screening signal at VIPR2 / GPCRome screening signal at GPR68 no V2 Tail / GPCRome screening signal at GRM2 / GPCRome screening signal at GRM3: reference not given here

Test [1] addresses T1, 320 non-olfactory GPCRs (Homo sapiens, UniProt P21452).
T1 construct: expressed in transfected cells; host or cells: HTLA cells
The settings on record: receptor TACR2.

Test [2] addresses T2, 320 non-olfactory GPCRs (Homo sapiens, UniProt Q9NSD7).
T2 construct: expressed in transfected cells; host or cells: HTLA cells
The settings on record: receptor RXFP3.

The target in test [3] is 320 non-olfactory GPCRs (Homo sapiens, UniProt P21453). The settings on record: receptor S1PR1.
Test [4] concerns the target T3, 320 non-olfactory GPCRs (Homo sapiens, UniProt P41587).
T3 construct: expressed in transfected cells; host or cells: HTLA cells
The settings on record: receptor VIPR2.

[5] abbreviates: Fig_5f, single replicate values.
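For GPCRome agonism screen response in this document: fold over basal response of each receptor without drug.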

T2 sequence (Q9NSD7 whole entry): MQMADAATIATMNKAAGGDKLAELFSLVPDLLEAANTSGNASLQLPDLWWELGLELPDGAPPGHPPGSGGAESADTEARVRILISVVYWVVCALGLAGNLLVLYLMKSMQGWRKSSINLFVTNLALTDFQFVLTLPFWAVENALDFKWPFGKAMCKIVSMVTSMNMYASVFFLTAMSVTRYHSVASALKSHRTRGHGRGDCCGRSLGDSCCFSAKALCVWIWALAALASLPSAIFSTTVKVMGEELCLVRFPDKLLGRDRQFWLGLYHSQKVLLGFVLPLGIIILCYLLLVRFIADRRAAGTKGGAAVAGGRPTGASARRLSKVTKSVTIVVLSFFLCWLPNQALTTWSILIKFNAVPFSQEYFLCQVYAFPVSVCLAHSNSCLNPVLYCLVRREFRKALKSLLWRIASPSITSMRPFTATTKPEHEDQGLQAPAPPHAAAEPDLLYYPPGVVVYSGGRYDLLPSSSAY
Chain of 320 non-olfactory GPCRs (Homo sapiens, UniProt P21453) (P21453 whole entry): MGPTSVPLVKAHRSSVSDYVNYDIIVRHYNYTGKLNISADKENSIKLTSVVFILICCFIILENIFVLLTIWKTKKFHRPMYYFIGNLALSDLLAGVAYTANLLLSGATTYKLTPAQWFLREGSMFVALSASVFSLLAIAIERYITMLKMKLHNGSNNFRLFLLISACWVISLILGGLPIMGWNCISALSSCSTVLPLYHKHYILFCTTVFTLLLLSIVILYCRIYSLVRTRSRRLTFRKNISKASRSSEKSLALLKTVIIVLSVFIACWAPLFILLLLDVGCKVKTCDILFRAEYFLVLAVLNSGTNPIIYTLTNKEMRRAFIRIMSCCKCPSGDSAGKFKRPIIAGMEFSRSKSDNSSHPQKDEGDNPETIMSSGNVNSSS
T3 sequence (P41587 24-438): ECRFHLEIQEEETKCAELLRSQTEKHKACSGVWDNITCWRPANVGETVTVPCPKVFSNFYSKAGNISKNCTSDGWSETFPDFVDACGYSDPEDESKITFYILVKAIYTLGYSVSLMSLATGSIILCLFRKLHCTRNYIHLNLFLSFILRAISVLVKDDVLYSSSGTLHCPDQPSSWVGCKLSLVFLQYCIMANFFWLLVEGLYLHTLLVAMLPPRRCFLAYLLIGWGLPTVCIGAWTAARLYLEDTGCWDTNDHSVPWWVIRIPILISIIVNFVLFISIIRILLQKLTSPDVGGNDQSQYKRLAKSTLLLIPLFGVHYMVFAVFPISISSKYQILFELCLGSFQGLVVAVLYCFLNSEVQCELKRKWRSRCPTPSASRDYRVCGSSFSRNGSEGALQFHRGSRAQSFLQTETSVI
T1 sequence (P21452 whole entry): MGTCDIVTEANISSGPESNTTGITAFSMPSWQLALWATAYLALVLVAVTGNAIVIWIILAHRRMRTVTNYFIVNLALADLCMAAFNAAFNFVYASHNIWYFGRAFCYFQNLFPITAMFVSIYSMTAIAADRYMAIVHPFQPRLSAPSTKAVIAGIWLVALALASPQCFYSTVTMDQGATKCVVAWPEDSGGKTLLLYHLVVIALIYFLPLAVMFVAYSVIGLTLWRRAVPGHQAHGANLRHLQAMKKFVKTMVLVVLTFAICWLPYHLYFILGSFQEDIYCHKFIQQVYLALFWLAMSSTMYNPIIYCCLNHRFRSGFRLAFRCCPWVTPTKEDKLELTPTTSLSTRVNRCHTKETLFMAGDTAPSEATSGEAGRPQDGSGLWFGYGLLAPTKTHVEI

As for `CCOc1ccccc1CCC(C)NCC1(O)CCCCC1.Cl` (racemic) [Fig_5f], the “GPCRome screening signal at TACR2” value in test [1] (setting [5]) is 1.32 and 1.667 and 1.261 and 1.267. In addition, in test [2] (setting [5]), the “GPCRome screening signal at RXFP3” value was 0.4184 and 0.8431 and 0.6194 and 0.3935. The “GPCRome screening signal at S1PR1” value in test [3] (setting [5]) was 0.7005 and 1.113 and 2.609 and 1.363. In test [4] (setting [5]), the “GPCRome screening signal at VIPR2” value is 0.8302 and 1.005 and 0.9541 and 0.5143.
In the case of `CCOc1cccc2cc(C(C)NCC3(O)CCCCC3)oc12` (centres unmarked) [O4LE6], the “GPCRome agonism screen response” value in test [1] (replicate values, Fig_4g) was 0.5287 and 0.4964 and 0.9933 and 0.8884; in test [2] (replicate values, Fig_4g), 0.4551 and 0.2696 and 0.704 and 0.4767; in test [3] (replicate values, Fig_4g) it was 2.353 and 1.219 and 1.439 and 0.7423; in test [4] (replicate values, Fig_4g) it was 0.366 and 1.433 and 1.331 and 0.8644.
